Earlier results in patent US20220160693A1, “PHARMACEUTICAL COMPOSITION OF PROLYL HYDROXYLASE INHIBITOR AND PREPARATION METHOD THEREFOR” (Jiangsu Hengrui Medicine Co., Ltd., priority 2019, published 2022).

Test system: prolyl hydroxylase

O=C(O)CNC(=O)c1ncc(C#CCOc2ccc(Cl)cc2)cc1O [compound of formula (I), 2-(3-hydroxy-5-(3-p-chlorophenoxypropyn-1-yl))picolinamido acetic acid]
Inhibition effect on prolyl hydroxylase (in words): excellent inhibition effect
